According to ChEMBL document CHEMBL4507299, “Data for DCP probe PF-04554878” (2021):

Assays:
[1] = molecular target: Calcium/calmodulin-dependent protein kinase type IV (Homo sapiens) (UniProt Q16566)
[2] = test system: Phosphatidylinositol 4,5-bisphosphate 3-kinase catalytic subunit alpha isoform (Homo sapiens), P42336 [E542K]
[3] = molecular target: cGMP-dependent protein kinase 2 (Homo sapiens) (UniProt Q13237)
[4] = molecular target: Serine/threonine-protein kinase 35 (Homo sapiens) (UniProt Q8TDR2)
[5] = molecular target: Ephrin type-A receptor 6 (Homo sapiens) (UniProt Q9UF33)
[6] = molecular target: Muscle, skeletal receptor tyrosine-protein kinase (Homo sapiens) (UniProt O15146)
[7] = molecular target: 5-hydroxytryptamine receptor 7 (Homo sapiens) (UniProt P34969); conditions: Compound concentration 10.0 uM
[8] = test system: Receptor-type tyrosine-protein kinase FLT3 (Homo sapiens), P36888 [D835V]
[9] = molecular target: Serine/threonine-protein kinase SIK3 (Homo sapiens) (UniProt Q9Y2K2)
[10] = molecular target: Receptor-interacting serine/threonine-protein kinase 4 (Homo sapiens) (UniProt P57078)
[11] = molecular target: Myosin light chain kinase family member 4 (Homo sapiens) (UniProt Q86YV6)
[12] = molecular target: Serine/threonine-protein kinase 32A (Homo sapiens) (UniProt Q8WU08)
[13] = molecular target: MAP kinase-activated protein kinase 2 (Homo sapiens) (UniProt P49137)
[14] = molecular target: 1-phosphatidylinositol 3-phosphate 5-kinase (Homo sapiens) (UniProt Q9Y2I7)
[15] = test system: Tyrosine-protein kinase ABL1 (Homo sapiens), P00519 [F317I]
[16] = molecular target: Receptor-interacting serine/threonine-protein kinase 2 (Homo sapiens) (UniProt O43353)
[17] = molecular target: D(4) dopamine receptor (Homo sapiens) (UniProt P21917); conditions: Compound concentration 10.0 uM
[18] = molecular target: Serine/threonine-protein kinase Nek2 (Homo sapiens) (UniProt P51955)
[19] = molecular target: Serine/threonine-protein kinase 32C (Homo sapiens) (UniProt Q86UX6)
[20] = molecular target: Serine/threonine-protein kinase 38-like (Homo sapiens) (UniProt Q9Y2H1)
[21] = molecular target: Mitogen-activated protein kinase 15 (Homo sapiens) (UniProt Q8TD08)
[22] = molecular target: Interleukin-1 receptor-associated kinase 1 (Homo sapiens) (UniProt P51617)
[23] = molecular target: Tyrosine-protein kinase TXK (Homo sapiens) (UniProt P42681)
[24] = molecular target: Serine/threonine-protein kinase LATS1 (Homo sapiens) (UniProt O95835)
[25] = molecular target: Death-associated protein kinase 2 (Homo sapiens) (UniProt Q9UIK4)
[26] = molecular target: Serine/threonine-protein kinase 26 (Homo sapiens) (UniProt Q9P289)
[27] = molecular target: Citron Rho-interacting kinase (Homo sapiens) (UniProt O14578)
[28] = molecular target: Mitogen-activated protein kinase 11 (Homo sapiens) (UniProt Q15759)
[29] = molecular target: Ephrin type-B receptor 1 (Homo sapiens) (UniProt P54762)
[30] = molecular target: Tyrosine-protein kinase ABL2 (Homo sapiens) (UniProt P42684)
[31] = molecular target: Cyclin-dependent kinase 14 (Homo sapiens) (UniProt O94921)
[32] = molecular target: Serine/threonine-protein kinase Nek9 (Homo sapiens) (UniProt Q8TD19)
[33] = molecular target: Vascular endothelial growth factor receptor 2 (Homo sapiens) (UniProt P35968)
[34] = test system: Hepatocyte growth factor receptor (Homo sapiens), P08581 [Y1235D]
[35] = molecular target: Phosphatidylinositol 4,5-bisphosphate 3-kinase catalytic subunit delta isoform (Homo sapiens) (UniProt O00329)
[36] = molecular target: Casein kinase I isoform alpha (Homo sapiens) (UniProt P48729)
[37] = molecular target: Tyrosine-protein kinase Srms (Homo sapiens) (UniProt Q9H3Y6)
[38] = molecular target: Mitogen-activated protein kinase 10 (Homo sapiens) (UniProt P53779)
[39] = molecular target: Phosphatidylinositol 4,5-bisphosphate 3-kinase catalytic subunit beta isoform (Homo sapiens) (UniProt P42338)
[40] = molecular target: G protein-coupled receptor kinase 3 (Homo sapiens) (UniProt P35626)
[41] = molecular target: Cyclin-dependent kinase 11B (Homo sapiens) (UniProt P21127)
[42] = molecular target: Serine/threonine-protein kinase Nek11 (Homo sapiens) (UniProt Q8NG66)
[43] = molecular target: Dual specificity protein kinase TTK (Homo sapiens) (UniProt P33981)
[44] = molecular target: Cyclin-dependent kinase 2 (Homo sapiens) (UniProt P24941)
[45] = molecular target: Tyrosine-protein kinase Lck (Homo sapiens) (UniProt P06239)
[46] = Compound concentration 100.0 nM
[47] = Compound concentration 1000.0 nM

5-hydroxytryptamine receptor 7 (Homo sapiens), sequence (P34969 whole entry): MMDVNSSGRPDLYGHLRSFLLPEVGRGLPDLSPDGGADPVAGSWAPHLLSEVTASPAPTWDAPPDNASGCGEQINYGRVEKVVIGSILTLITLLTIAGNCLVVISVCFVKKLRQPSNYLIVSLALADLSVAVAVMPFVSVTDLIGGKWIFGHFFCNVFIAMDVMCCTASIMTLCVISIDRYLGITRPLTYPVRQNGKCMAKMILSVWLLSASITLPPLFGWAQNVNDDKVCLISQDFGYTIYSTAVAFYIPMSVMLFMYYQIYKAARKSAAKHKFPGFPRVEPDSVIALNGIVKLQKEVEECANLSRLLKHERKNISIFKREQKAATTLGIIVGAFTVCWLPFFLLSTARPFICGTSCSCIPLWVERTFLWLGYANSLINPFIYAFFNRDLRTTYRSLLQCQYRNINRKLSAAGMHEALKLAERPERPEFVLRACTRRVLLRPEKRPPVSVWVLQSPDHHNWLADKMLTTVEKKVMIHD
Serine/threonine-protein kinase Nek11 (Homo sapiens), sequence (Q8NG66 whole entry): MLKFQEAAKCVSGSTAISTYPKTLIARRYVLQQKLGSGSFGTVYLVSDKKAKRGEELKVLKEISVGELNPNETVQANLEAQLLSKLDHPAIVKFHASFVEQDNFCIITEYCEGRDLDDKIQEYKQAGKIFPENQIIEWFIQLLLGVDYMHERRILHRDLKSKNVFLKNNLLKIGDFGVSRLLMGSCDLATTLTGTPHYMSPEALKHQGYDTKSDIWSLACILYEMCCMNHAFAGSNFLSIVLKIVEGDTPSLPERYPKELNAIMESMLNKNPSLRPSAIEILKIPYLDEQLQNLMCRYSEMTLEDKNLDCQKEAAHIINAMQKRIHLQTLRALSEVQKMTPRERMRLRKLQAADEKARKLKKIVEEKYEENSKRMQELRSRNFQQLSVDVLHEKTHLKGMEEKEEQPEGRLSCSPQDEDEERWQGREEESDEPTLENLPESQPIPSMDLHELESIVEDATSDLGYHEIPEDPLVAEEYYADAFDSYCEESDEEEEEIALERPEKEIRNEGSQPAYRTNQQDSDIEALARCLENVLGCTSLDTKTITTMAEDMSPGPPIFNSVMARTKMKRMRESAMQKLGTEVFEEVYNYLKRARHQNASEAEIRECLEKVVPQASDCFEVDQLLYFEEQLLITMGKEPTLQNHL
Interleukin-1 receptor-associated kinase 1 (Homo sapiens), sequence (P51617 whole entry, looked up): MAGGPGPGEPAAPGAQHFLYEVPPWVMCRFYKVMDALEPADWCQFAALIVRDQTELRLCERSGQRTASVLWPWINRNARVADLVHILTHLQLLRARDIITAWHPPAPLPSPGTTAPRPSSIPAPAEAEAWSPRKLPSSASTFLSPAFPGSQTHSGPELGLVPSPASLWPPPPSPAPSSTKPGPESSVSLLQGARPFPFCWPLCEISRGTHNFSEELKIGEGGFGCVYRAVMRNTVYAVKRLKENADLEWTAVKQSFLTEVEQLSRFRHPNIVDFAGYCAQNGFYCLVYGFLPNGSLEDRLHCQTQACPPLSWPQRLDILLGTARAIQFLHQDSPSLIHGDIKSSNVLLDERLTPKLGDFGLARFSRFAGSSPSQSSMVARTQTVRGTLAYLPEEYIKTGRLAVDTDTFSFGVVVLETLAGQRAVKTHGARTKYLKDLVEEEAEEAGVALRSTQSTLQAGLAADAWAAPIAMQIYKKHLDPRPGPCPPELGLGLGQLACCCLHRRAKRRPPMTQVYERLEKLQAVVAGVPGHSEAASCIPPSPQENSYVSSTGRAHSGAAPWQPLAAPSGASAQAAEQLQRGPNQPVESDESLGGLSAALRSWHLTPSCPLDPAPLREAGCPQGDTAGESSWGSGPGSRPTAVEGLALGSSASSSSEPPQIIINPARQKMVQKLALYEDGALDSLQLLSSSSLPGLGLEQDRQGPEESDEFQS
cGMP-dependent protein kinase 2 (Homo sapiens), sequence (Q13237 whole entry): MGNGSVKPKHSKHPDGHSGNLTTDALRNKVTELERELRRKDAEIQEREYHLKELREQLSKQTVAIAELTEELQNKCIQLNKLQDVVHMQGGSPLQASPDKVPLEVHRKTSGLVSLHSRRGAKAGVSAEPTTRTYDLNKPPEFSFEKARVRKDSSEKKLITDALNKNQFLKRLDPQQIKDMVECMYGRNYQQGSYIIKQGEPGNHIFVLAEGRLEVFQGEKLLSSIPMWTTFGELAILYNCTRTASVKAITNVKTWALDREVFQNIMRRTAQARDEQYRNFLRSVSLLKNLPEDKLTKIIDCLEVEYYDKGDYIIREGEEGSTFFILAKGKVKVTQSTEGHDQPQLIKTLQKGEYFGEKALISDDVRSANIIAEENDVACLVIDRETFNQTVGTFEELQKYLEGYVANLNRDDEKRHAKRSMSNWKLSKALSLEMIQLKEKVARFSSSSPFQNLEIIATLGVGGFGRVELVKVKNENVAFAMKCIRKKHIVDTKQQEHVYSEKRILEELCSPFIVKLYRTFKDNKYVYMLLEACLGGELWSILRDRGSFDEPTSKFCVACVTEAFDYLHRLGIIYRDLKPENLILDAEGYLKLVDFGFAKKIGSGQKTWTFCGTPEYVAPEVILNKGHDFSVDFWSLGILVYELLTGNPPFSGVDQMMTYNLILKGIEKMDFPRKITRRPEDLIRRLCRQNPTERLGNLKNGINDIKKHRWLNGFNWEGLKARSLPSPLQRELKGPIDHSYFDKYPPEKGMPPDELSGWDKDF
Tyrosine-protein kinase Lck (Homo sapiens), sequence (P06239 2-509 limits assumed): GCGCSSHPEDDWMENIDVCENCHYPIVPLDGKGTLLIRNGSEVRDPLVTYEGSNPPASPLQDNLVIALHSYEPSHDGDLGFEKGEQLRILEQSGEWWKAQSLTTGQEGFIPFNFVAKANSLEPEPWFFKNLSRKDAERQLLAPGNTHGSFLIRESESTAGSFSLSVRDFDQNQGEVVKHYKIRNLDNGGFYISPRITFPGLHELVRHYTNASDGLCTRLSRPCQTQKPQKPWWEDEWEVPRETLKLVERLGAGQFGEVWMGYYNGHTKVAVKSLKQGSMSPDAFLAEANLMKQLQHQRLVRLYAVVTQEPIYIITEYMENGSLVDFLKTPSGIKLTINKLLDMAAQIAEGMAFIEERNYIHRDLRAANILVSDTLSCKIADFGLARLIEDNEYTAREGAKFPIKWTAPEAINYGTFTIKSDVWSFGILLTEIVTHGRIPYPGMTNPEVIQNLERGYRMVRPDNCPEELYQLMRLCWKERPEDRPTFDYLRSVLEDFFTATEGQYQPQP
Mitogen-activated protein kinase 11 (Homo sapiens), sequence (Q15759 whole entry): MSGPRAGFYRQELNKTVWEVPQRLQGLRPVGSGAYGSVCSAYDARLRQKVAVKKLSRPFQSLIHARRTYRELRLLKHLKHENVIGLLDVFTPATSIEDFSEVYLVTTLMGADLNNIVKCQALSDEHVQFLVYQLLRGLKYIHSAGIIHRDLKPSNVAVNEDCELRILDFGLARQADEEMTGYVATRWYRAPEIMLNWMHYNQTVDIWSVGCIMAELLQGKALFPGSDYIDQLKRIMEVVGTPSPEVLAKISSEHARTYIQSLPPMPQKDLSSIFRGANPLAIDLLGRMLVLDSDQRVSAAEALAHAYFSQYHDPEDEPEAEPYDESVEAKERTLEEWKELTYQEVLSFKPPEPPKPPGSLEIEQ
Myosin light chain kinase family member 4 (Homo sapiens), sequence (Q86YV6 whole entry): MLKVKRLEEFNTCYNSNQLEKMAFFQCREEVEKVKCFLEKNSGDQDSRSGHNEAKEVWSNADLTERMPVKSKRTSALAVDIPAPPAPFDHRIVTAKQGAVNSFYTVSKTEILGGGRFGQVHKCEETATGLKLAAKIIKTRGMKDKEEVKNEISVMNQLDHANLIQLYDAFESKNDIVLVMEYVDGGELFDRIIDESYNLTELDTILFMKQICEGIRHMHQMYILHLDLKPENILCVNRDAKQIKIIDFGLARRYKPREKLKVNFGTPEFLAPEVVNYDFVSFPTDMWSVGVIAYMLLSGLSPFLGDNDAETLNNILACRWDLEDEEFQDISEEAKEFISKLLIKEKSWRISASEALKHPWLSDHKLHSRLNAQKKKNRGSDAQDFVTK
Serine/threonine-protein kinase LATS1 (Homo sapiens), sequence (O95835 whole entry): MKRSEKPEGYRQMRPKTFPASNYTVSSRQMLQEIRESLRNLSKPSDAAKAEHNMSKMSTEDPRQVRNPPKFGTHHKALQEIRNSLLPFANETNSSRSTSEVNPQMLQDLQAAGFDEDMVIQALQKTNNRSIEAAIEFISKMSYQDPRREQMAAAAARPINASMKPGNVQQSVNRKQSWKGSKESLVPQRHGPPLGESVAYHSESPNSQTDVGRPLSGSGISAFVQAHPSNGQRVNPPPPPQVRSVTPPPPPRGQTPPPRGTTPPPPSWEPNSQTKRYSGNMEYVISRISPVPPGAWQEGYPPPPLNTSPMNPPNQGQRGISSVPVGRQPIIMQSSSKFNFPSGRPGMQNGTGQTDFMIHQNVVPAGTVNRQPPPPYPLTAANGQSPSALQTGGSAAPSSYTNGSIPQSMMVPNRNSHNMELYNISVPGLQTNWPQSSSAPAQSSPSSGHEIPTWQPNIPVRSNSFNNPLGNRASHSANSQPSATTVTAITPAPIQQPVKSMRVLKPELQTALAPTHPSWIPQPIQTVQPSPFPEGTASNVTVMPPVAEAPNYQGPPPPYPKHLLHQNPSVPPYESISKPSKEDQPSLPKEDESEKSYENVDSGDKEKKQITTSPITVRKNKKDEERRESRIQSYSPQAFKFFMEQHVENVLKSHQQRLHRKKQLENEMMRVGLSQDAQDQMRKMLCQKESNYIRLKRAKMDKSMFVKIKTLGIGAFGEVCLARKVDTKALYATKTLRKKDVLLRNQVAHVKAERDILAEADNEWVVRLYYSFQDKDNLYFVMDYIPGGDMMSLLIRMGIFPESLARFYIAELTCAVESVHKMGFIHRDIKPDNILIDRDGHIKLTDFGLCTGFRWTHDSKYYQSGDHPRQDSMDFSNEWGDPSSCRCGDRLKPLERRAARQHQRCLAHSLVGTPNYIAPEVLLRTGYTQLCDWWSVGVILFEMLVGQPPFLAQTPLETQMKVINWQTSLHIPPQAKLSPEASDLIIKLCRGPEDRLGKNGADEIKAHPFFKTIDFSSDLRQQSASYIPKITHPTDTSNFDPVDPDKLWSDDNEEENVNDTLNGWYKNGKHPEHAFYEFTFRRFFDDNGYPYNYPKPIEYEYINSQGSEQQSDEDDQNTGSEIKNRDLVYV

CNC(=O)c1ccc(Nc2ncc(C(F)(F)F)c(NCc3nccnc3N(C)S(C)(=O)=O)n2)cc1 [DEFACTINIB]
residual activity [1, 46]: 100% | residual activity [2, 46]: 49% | residual activity [3, 46]: 100% | residual activity [4, 46]: 100% | residual activity [5, 46]: 85% | residual activity [6, 46]: 100% | inhibition [7]: 5.31% | residual activity [8, 46]: 0.2% | residual activity [9, 46]: 82% | residual activity [10, 46]: 89% | residual activity [11, 46]: 100% | residual activity [12, 46]: 71% | residual activity [13, 46]: 100% | residual activity [14, 46]: 100% | residual activity [15, 46]: 100% | residual activity [16, 46]: 100% | inhibition [17]: 7.8% | residual activity [18, 46]: 75% | residual activity [19, 46]: 100% | residual activity [20, 46]: 73% | residual activity [21, 46]: 40% | residual activity [22, 46]: 77% | residual activity [23, 46]: 98% | residual activity [24, 46]: 96% | residual activity [25, 46]: 68% | residual activity [26, 46]: 95% | residual activity [27, 46]: 68% | residual activity [28, 46]: 76% | residual activity [29, 46]: 87% | residual activity [30, 46]: 93% | residual activity [31, 46]: 88% | residual activity [32, 46]: 80% | residual activity [33, 46]: 73% | residual activity [34, 46]: 71% | residual activity [35, 46]: 90% | residual activity [36, 46]: 94% | residual activity [37, 46]: 96% | residual activity [38, 46]: 100% | residual activity [39, 46]: 45% | residual activity [40, 46]: 80% | residual activity [41, 46]: 95% | residual activity [42, 46]: 89% | residual activity [43, 46]: 8.3% | residual activity [44, 46]: 97% | residual activity [45, 46]: 87%

CN(c1ccnc(CNc2nc(Nc3ccc4c(c3)CC(=O)N4)ncc2C(F)(F)F)n1)S(C)(=O)=O [PF-00911705]
residual activity [1, 47]: 100% | residual activity [2, 47]: 100% | residual activity [3, 47]: 68% | residual activity [4, 47]: 86% | residual activity [5, 47]: 85% | residual activity [6, 47]: 92% | inhibition [7]: -4.55% | residual activity [8, 47]: 1.5% | residual activity [9, 47]: 82% | residual activity [10, 47]: 6% | residual activity [11, 47]: 35% | residual activity [12, 47]: 72% | residual activity [13, 47]: 100% | residual activity [14, 47]: 100% | residual activity [15, 47]: 79% | residual activity [16, 47]: 82% | inhibition [17]: 2.34% | residual activity [18, 47]: 83% | residual activity [19, 47]: 76% | residual activity [20, 47]: 75% | residual activity [21, 47]: 4.8% | residual activity [22, 47]: 13% | residual activity [23, 47]: 91% | residual activity [24, 47]: 51% | residual activity [25, 47]: 58% | residual activity [26, 47]: 46% | residual activity [27, 47]: 99% | residual activity [28, 47]: 85% | residual activity [29, 47]: 99% | residual activity [30, 47]: 75% | residual activity [31, 47]: 86% | residual activity [32, 47]: 63% | residual activity [33, 47]: 56% | residual activity [34, 47]: 10% | residual activity [35, 47]: 77% | residual activity [36, 47]: 81% | residual activity [37, 47]: 62% | residual activity [38, 47]: 56% | residual activity [39, 47]: 100% | residual activity [40, 47]: 91% | residual activity [41, 47]: 91% | residual activity [42, 47]: 100% | residual activity [43, 47]: 13% | residual activity [44, 47]: 89% | residual activity [45, 47]: 46%
